Legend:
[1] = system: HCV genotype 1a replicon; experiment: HCV genotype 1a replicon assay (NS3 protease activity readout); assay type: cell-based, hepatitis C virus; settings: HCV genotype 1a replicon
Procedure, shortened: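 EC50 values came from a 4-parameter robust fit of fluorescence (ex 340, em 509 nm) produced by NS3-specific protease in lysates, assayed with 15 μM FRET substrate for 20 min at 37° C, after 48 or 72 hours of compound exposure (0.5% DMSO) of Huh7.5-derived APC89 genotype 1a replicon cells.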

[2] = target: HCV genotype 1b replicon; experiment: HCV genotype 1b replicon assay (Renilla luciferase readout); assay type: cell-based, hepatitis C virus; settings: HCV genotype 1b replicon
Description: Assay 1: HCV Genotype 1b Replicon Assay
The HCV genotype 1b replicon cell line was obtained from Apath LLC (Brooklyn, N.Y.) (APC144; Huh7 cell background). This subgenomic replicon contains the N-terminus of the HCV core protein fused to the neomycin-resistance selectable marker. The EMCV IRES lies downstream and drives expression of humanized Renilla luciferase fused to the non-structural proteins NS3-NS5B. This cell line was used to determine compound potency using the luciferase activity readout as a measurement of compound inhibition of replicon levels.
Cells were grown at 37° C. in a 5% CO2 humidified incubator in DMEM (Invitrogen) with 10% FBS (HyClone), 1×NEAA (Invitrogen), 1× Pen-Strep (Invitrogen), and 500 μg/mL G418 (Invitrogen). On day 1 of the assay, cells were plated at 10,000 cells/well in white 96-well tissue culture plates (Costar) in 200 μL media lacking G418. Four hours later, once the cells have adhered, the media was removed and replaced with media (no G418) containing dose-responses of test compounds. Compounds were initially diluted in DMSO and then diluted another 200× in media to bring the final DMSO concentration down to 0.5%. The cells were incubated with test compounds for 48 hours. At the end of the incubation period, media and compound were removed from the plates and the luciferase activity was determined using Promega Renilla-Glo reagents.
To analyze the data, the luciferase activity was plotted vs. the compound concentration, and EC50 values were determined from a 4-parameter robust fit model with the GraphPad Prism software package (GraphPad Software, Inc., San Diego, Calif.). Results are expressed as the negative decadic logarithm of the EC50 value, pEC50.
Test compounds having a higher pEC50 value in this assay show greater inhibition of HCV genotype 1b replication.

| SMILES | Genotype 1a [1] | Genotype 1b [2] |
| --- | --- | --- |
| COC(=O)NC(C(=O)N1CC(C)CC1c1nc(-c2ccc(-c3cc(F)c(NC(=O)c4ccc(N5CCN(C(=O)C6CC6(F)F)CC5C)nc4)cc3C(F)(F)F)cc2)c[nH]1)C(C)C (mixture of isomers) [Example 1-53] | D (D represents pEC50>10 (EC50<0.1 nM)) | D (D represents pEC50>10 (EC50<0.1 nM)) |
| COC(=O)NC(C(=O)N1CC(C)CC1c1nc(-c2ccc(-c3cc(Cl)c(NC(=O)c4ccc(N5CCN(C(=O)C6CC6(F)F)CC5C)nc4)cc3C(F)(F)F)cc2)c[nH]1)C(C)C (mixture of isomers) [Example 1-55] | D (D represents pEC50>10 (EC50<0.1 nM)) | D (D represents pEC50>10 (EC50<0.1 nM)) |
| COC(=O)NC(C(=O)N1C[C@@H](C)C[C@H]1c1nc(-c2ccc(-c3cc(Cl)c(NC(=O)c4ccc(N5CCN(C(=O)C(C)(C)C)C[C@H]5C)nc4)cc3C(F)(F)F)cc2)c[nH]1)C1CCS(=O)(=O)CC1 (single isomer, unassigned) [Example 19-6] | D (D represents pEC50>10 (EC50<0.1 nM)) | D (D represents pEC50>10 (EC50<0.1 nM)) |
| COC(=O)N[C@H](C(=O)N1C[C@@H](C)C[C@H]1c1nc(-c2ccc(-c3cc(Cl)c(C(=O)Nc4ccc(N5CCN(C(=O)C(C)(C)C)C[C@@H]5C)nc4)cc3OC(F)(F)F)cc2)c[nH]1)C1CCOCC1 [24-1] | C (C represents pEC50 between and 9 and about 10, (EC50 between 1 nM and 0.1 nM)) | D (D represents pEC50>10 (EC50<0.1 nM)) |
| COC(=O)N[C@H](C(=O)N1C[C@@H](C)C[C@H]1c1nc(-c2ccc(-c3cc(Cl)c(C(=O)Nc4ccc(N5CCN(C(=O)C(C)(C)C)[C@H](C)C5)nc4)cc3OC(F)(F)F)cc2)c[nH]1)C1CCOCC1 [24-3] | C (C represents pEC50 between and 9 and about 10, (EC50 between 1 nM and 0.1 nM)) | D (D represents pEC50>10 (EC50<0.1 nM)) |
| COC[C@H]1CN(c2ccc(NC(=O)c3cc(OC(F)(F)F)c(-c4ccc(-c5c[nH]c([C@@H]6C[C@H](C)CN6C(=O)[C@@H](NC(=O)OC)C6CCOCC6)n5)cc4)cc3Cl)cn2)CCN1C(=O)C(C)(C)C [24-4] | C (C represents pEC50 between and 9 and about 10, (EC50 between 1 nM and 0.1 nM)) | D (D represents pEC50>10 (EC50<0.1 nM)) |
| COC[C@H]1C[C@@H](c2nc(-c3ccc(-c4cc(Cl)c(C(=O)Nc5ccc(N6CCN(C(=O)C(C)(C)C)C[C@H]6C)nc5)cc4OC(F)(F)F)cc3)c[nH]2)N(C(=O)[C@@H](NC(=O)OC)C2CCOCC2)C1 [24-6] | D (D represents pEC50>10 (EC50<0.1 nM)) | D (D represents pEC50>10 (EC50<0.1 nM)) |
| CNC(=O)N1CCN(c2ccc(C(=O)Nc3cc(OC(F)(F)F)c(-c4ccc(-c5c[nH]c([C@@H]6C[C@H](C)CN6C(=O)[C@@H](NC(=O)OC)C(C)C)n5)cc4)cc3F)cn2)[C@H](C)C1 [Example 1-1] | D (D represents pEC50>10 (EC50<0.1 nM)) | D (D represents pEC50>10 (EC50<0.1 nM)) |
| COC(=O)N[C@H](C(=O)N1C[C@@H](C)C[C@H]1c1nc(-c2ccc(-c3cc(F)c(NC(=O)c4ccc(N5CCN(C(=O)C6CC6)C[C@H]5C)nc4)cc3OC(F)(F)F)cc2)c[nH]1)C(C)C [Example 1-3] | D (D represents pEC50>10 (EC50<0.1 nM)) | D (D represents pEC50>10 (EC50<0.1 nM)) |
| COC(=O)N[C@H](C(=O)N1C[C@@H](C)C[C@H]1c1nc(-c2ccc(-c3cc(F)c(NC(=O)c4ccc(N5CCN(C(=O)[C@H]6CC6(C)C)C[C@H]5C)nc4)cc3C(F)(F)F)cc2)c[nH]1)C(C)C [Example 1-5] | D (D represents pEC50>10 (EC50<0.1 nM)) | D (D represents pEC50>10 (EC50<0.1 nM)) |
| COC(=O)N[C@H](C(=O)N1C[C@@H](C)C[C@H]1c1nc(-c2ccc(-c3cc(F)c(NC(=O)c4ccc(N5C[C@H](C)N(C(=O)[C@H]6CC6(C)C)C[C@H]5C)nc4)cc3C(F)(F)F)cc2)c[nH]1)C(C)C [Example 1-7] | D (D represents pEC50>10 (EC50<0.1 nM)) | D (D represents pEC50>10 (EC50<0.1 nM)) |
| CNC(=O)N1C[C@@H](C)N(c2ccc(C(=O)Nc3cc(C(F)(F)F)c(-c4ccc(-c5c[nH]c([C@@H]6C[C@H](C)CN6C(=O)[C@@H](NC(=O)OC)C(C)C)n5)cc4)cc3F)cn2)C[C@@H]1C [Example 1-8] | D (D represents pEC50>10 (EC50<0.1 nM)) | D (D represents pEC50>10 (EC50<0.1 nM)) |
| COC(=O)N[C@H](C(=O)N1C[C@@H](O)C[C@H]1c1nc(-c2ccc(-c3cc(Cl)c(NC(=O)c4ccc(N5CCN(C(=O)C(C)(C)CO)C[C@H]5C)nc4)cc3OC(F)(F)F)cc2)c[nH]1)C1CCOCC1 [Example 26-11] | A (A represents a pEC50 value between 6 and 8 (EC50 between 1 μM and 10 nM)) |  |
| COC(=O)N[C@H](C(=O)N1C[C@@H](OC)C[C@H]1c1nc(-c2ccc(-c3cc(F)c(NC(=O)c4ccc(N5CCN(C(=O)[C@H]6CC6(C)C)C[C@H]5C)nc4)cc3OC(F)(F)F)cc2)c[nH]1)C(C)C [Example 27-4] | D (D represents pEC50>10 (EC50<0.1 nM)) |  |
| COC(=O)N[C@H](C(=O)N1C[C@@H](OC)C[C@H]1c1nc(-c2ccc(-c3ccc(NC(=O)c4ccc(N5CCN(C(=O)C(C)(C)CO)C[C@H]5C)nc4)cc3OC(F)(F)F)cc2)c[nH]1)C(C)C [Example 27-7] | D (D represents pEC50>10 (EC50<0.1 nM)) |  |
| COC(=O)N[C@H](C(=O)N1C[C@@H](OC)C[C@H]1c1nc(-c2ccc(-c3ccc(NC(=O)c4ccc(N5CCN(C(=O)C(C)(C)CO)C[C@H]5C)nc4)cc3OC(F)(F)F)cc2)c[nH]1)C1CCOCC1 [Example 28-4] | D (D represents pEC50>10 (EC50<0.1 nM)) |  |
| COC(=O)N[C@H](C(=O)N1C[C@@H](OC)C[C@H]1c1nc(-c2ccc(-c3cc(Cl)c(NC(=O)c4ccc(N5C[C@H](C)N(C(=O)C(C)(C)CO)C[C@H]5C)nc4)cc3OC(F)(F)F)cc2)c[nH]1)C1CCOCC1 [Example 28-5] | D (D represents pEC50>10 (EC50<0.1 nM)) |  |
| CNC(=O)N1C[C@@H](C)N(c2ccc(C(=O)Nc3cc(OC(F)(F)F)c(-c4ccc(-c5c[nH]c([C@@H]6C[C@H](OC)CN6C(=O)[C@@H](NC(=O)OC)C6CCOCC6)n5)cc4)cc3Cl)cn2)C[C@@H]1C [Example 28-8] | D (D represents pEC50>10 (EC50<0.1 nM)) |  |
| COC(=O)N[C@H](C(=O)N1C[C@@H](OC)C[C@H]1c1nc(-c2ccc(-c3cc(Cl)c(NC(=O)c4ccc(N5C[C@H](C)N(C(=O)NC(C)(C)C)C[C@H]5C)nc4)cc3OC(F)(F)F)cc2)c[nH]1)C1CCOCC1 [Example 28-9] | D (D represents pEC50>10 (EC50<0.1 nM)) |  |
| COC(=O)N[C@H](C(=O)N1C[C@@H](OC)C[C@H]1c1nc(-c2ccc(-c3cc(Cl)c(NC(=O)c4ccc(N5C[C@H](C)N(C(=O)C6CC6)C[C@H]5C)nc4)cc3OC(F)(F)F)cc2)c[nH]1)C1CCOCC1 [Example 28-10] | D (D represents pEC50>10 (EC50<0.1 nM)) |  |
| COC(=O)N[C@H](C(=O)N1C[C@@H](OC)C[C@H]1c1nc(-c2ccc(-c3cc(Cl)c(NC(=O)c4ccc(N5CCN(C(=O)NC(C)(C)C)C[C@H]5C)nc4)cc3OC(F)(F)F)cc2)c[nH]1)C1CCOCC1 [Example 28-12] | D (D represents pEC50>10 (EC50<0.1 nM)) |  |
| CNC(=O)N1CCN(c2ccc(C(=O)Nc3cc(OC(F)(F)F)c(-c4ccc(-c5c[nH]c([C@@H]6C[C@H](OC)CN6C(=O)[C@@H](NC(=O)OC)C6CCOCC6)n5)cc4)cc3Cl)cn2)[C@H](C)C1 [Example 28-13] | D (D represents pEC50>10 (EC50<0.1 nM)) |  |
| COC(=O)N[C@H](C(=O)N1C[C@@H](OC)C[C@H]1c1nc(-c2ccc(-c3cc(Cl)c(NC(=O)c4ccc(N5CCN(C(=O)C(C)(C)C(=O)O)C[C@H]5C)nc4)cc3OC(F)(F)F)cc2)c[nH]1)C1CCOCC1 [Example 28-23] | C (C represents pEC50 between and 9 and about 10, (EC50 between 1 nM and 0.1 nM)) |  |
| COC(=O)NC(C(=O)N1CC(F)CC1c1nc(-c2ccc(-c3cc(Cl)c(NC(=O)c4ccc(N5CCN(C(=O)C(C)(C)C)CC5C)nc4)cc3OC(F)(F)F)cc2)c[nH]1)C1CCOCC1 (stereo not drawn) [Example 29-1] | D (D represents pEC50>10 (EC50<0.1 nM)) |  |
| COC(=O)NC(C(=O)N1CC(F)CC1c1nc(-c2ccc(-c3cc(Cl)c(NC(=O)c4ccc(N5CCN(C(=O)C(C)(C)C)CC5C)nc4)cc3OC(F)(F)F)cc2)c[nH]1)C(C)C (stereo not drawn) [Example 29-2] | C (C represents pEC50 between and 9 and about 10, (EC50 between 1 nM and 0.1 nM)) |  |
| COC(=O)NC(C(=O)N1CC(F)CC1c1nc(-c2ccc(-c3cc(Cl)c(NC(=O)c4ccc(N5CCN(C(=O)C(C)(C)CO)CC5C)nc4)cc3OC(F)(F)F)cc2)c[nH]1)C(C)C (stereo not drawn) [Example 29-3] | C (C represents pEC50 between and 9 and about 10, (EC50 between 1 nM and 0.1 nM)) |  |
| COC(=O)NC(C(=O)N1CC(F)CC1c1nc(-c2ccc(-c3cc(Cl)c(NC(=O)c4ccc(N5CCN(C(=O)C(C)(C)CO)CC5C)nc4)cc3OC(F)(F)F)cc2)c[nH]1)C1CCOCC1 (stereo not drawn) [Example 29-4] | D (D represents pEC50>10 (EC50<0.1 nM)) |  |

— patent US9212168B2 (priority 2011, dated 2015)
